Assay results reported in patent US7407960B2, “Substituted heterocyclic compounds” (CV Therapeutics, Inc., priority 2002, dated 2008).

Tested on: Palmitoyl CoA oxidation
Test: Palmitoyl CoA oxidation in isolated rat heart mitochondria
Format: biochemical
Settings: 1-C14 palmitoyl CoA, 15 min at 30° C., read-out: PalmCoA IC50
Experimental: Rat heart mitochondria were isolated by the method of Nedergard and Cannon (Methods in Enzymol. 55, 3, 1979).
Palmitoyl CoA oxidation—The Palmityl CoA oxidation was carried out in a total volume of 100 micro liters containing the following agents: 110 mM KCl, 33 mM Tris buffer at pH 8, 2 mM KPi, 2 mM MgCl2, 0.1 mM EDTA, 14.7 microM defatted BSA, 0.5 mM malic acid, 13 mM carnitine, 1 mM ADP, 52 micrograms of mitochondrial protein, and 16 microM 1-C14 palmitoyl CoA (Sp. Activity 60 mCi/mmole; 20 microCi/ml, using 5 microliters per assay). The compounds of this invention were added in a DMSO solution at the following concentrations: 100 micro molar, 30 micro molar, and 3 micro molar. In each assay, a DMSO control was used. After 15 min at 30° C., the enzymatic reaction was centrifuged (20,000 g for 1 min), and 70 microliters of the supernatant was added to an activated reverse phase silicic acid column (approximately 0.5 ml of silicic acid). The column was eluted with 2 ml of water, and 0.5 ml of the eluent was used for scintillation counting to determine the amount of C^14 trapped as C^14 bicarbonate ion.

Work on `Cc1nc2cc(OC[C@H](O)CN3CCN(CC(=O)Nc4cccc5c4CCC5)CC3)ccc2s1` [2-{4-[(2R)-2-hydroxy-3-(2-methylbenzothiazol-5-yloxy)propyl]piperazinyl}-N-indan-4-ylacetamide] yielded an IC50 of 150 nM.
